Columns and labels:
IRE1α = target: T1, IRE1α (Homo sapiens, UniProt O75460); assay: IRE1α expression and kinase function (phospho-IRE1α immunoblot); assay type: cell-based
T1 construct: endogenous in cells; host or cells: HT1080
Description: Cells (2×10^6) were cultured in 10-cm dishes, collected using a cell scraper at 4° C., and lysed by addition of 150 μl cell lysis buffer [50 mM Tris pH 7.4, 150 mM NaCl, 10% glycerol, 0.5% Triton X-100. 0.5% NP-40, 2 mM Na3VO4, 20 mM beta-glycerophosphate, 10 mM NaF, 1 mM DTT, 1 mM PMSF). Lysates were centrifuged for 5 min at 10,000×g, and proteins (˜40 μg) were resolved by SDS-PAGE followed by semi-dry transfer to nitrocellulose membranes. Membranes were blocked in TBS-5% milk supplemented with 0.1% Tween-20. The blots were then probed overnight with relevant antibodies, washed, and incubated for 2 hours with species-specific secondary antibodies conjugated to horseradish peroxidase. After washing in block solution, immunoreactive material was detected by enhanced chemiluminescence (SuperSignal West Dura Extended, Pierce, Inc., Rockville, Ill.).
HT1080 cells were exposed to DMSO vehicle (lane 1), irestatin 9389 (2.5 μM; lane 2) for 16 hours or Tm (5 μg/ml; lane 3) for 8 hours. Following treatments, cells were harvested, lysed, and analyzed by immunoblotting using anti-Grp78 antibody (top) or anti-actin (bottom) as a loading control. […] Cell lysates were analyzed by Western immunoblotting using anti-IRE1α (bottom) or anti-phospho-IRE1α antibodies (top). […] Lysates were analyzed by Western blot using antisera specific for phospho-JNK1 (top) or total JNK1 (bottom). […]

IRE1α-cyto = target: T2, IRE1α-cyto (Homo sapiens, UniProt O75460); assay: In vitro IRE1α endonuclease (ribonuclease) assay; assay type: biochemical; settings: 2.5 μM
T2 construct: purified the full cytosolic portion of IRE1α (His6-IRE1α-cyto) containing both kinase and endonuclease domains; 6x-His; made in house; host or cells: bacteria
T2 sequence (O75460 465-977 limits assumed): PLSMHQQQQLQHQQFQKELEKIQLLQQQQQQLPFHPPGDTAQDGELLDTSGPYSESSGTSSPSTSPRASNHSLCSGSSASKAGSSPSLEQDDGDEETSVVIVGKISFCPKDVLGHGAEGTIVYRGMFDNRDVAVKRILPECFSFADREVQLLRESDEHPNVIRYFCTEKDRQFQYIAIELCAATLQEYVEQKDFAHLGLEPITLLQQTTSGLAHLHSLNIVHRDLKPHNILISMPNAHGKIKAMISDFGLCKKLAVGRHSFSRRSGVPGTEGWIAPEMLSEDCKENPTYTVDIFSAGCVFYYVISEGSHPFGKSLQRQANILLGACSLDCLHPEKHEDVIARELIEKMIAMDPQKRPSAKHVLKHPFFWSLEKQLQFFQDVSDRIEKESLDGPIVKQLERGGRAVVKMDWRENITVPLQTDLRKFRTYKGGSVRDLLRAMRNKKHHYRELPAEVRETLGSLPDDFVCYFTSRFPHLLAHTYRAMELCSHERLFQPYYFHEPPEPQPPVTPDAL
Description: The in vitro ribonuclease assays were carried out using purified IRE1α-cyto essentially as described. Gonzalez and Walter, Methods Mol Biol 160: 25-36 (2001); Gonzalez et al., Embo J 18: 3119-3132 (1999). For each reaction, 5 μg purified IRE1α-cyto was incubated with 300 ng of fluorescein-labeled RNA stem-loop substrate at 37° C. in a total volume of 300 μl. Aliquots (50 μl) were withdrawn at the indicated times and mixed with an equal volume of stop solution. Id. Reactions were analyzed by SDS-PAGE using 10-20% acrylamide gradient gels. The sequence for the hXBP-1 3′ RNA stem-loop substrate is as follows: 5′[…] G 3′ (SEQ ID NO: 8). […]
HT1080 cells were exposed to DMSO vehicle (lane 1), irestatin 9389 (2.5 μM; lane 2) for 16 hours or Tm (5 μg/ml; lane 3) for 8 hours. Following treatments, cells were harvested, lysed, and analyzed by immunoblotting using anti-Grp78 antibody (top) or anti-actin (bottom) as a loading control. […] Cell lysates were analyzed by Western immunoblotting using anti-IRE1α (bottom) or anti-phospho-IRE1α antibodies (top). […] Lysates were analyzed by Western blot using antisera specific for phospho-JNK1 (top) or total JNK1 (bottom). […] F. Quantification of RNA cleavage kinetics. […] Samples were analyzed as in (E).
Next we determined whether irestatin 9389 inhibited the endonuclease function of IRE1α. […]

T1 sequence (O75460 19-977): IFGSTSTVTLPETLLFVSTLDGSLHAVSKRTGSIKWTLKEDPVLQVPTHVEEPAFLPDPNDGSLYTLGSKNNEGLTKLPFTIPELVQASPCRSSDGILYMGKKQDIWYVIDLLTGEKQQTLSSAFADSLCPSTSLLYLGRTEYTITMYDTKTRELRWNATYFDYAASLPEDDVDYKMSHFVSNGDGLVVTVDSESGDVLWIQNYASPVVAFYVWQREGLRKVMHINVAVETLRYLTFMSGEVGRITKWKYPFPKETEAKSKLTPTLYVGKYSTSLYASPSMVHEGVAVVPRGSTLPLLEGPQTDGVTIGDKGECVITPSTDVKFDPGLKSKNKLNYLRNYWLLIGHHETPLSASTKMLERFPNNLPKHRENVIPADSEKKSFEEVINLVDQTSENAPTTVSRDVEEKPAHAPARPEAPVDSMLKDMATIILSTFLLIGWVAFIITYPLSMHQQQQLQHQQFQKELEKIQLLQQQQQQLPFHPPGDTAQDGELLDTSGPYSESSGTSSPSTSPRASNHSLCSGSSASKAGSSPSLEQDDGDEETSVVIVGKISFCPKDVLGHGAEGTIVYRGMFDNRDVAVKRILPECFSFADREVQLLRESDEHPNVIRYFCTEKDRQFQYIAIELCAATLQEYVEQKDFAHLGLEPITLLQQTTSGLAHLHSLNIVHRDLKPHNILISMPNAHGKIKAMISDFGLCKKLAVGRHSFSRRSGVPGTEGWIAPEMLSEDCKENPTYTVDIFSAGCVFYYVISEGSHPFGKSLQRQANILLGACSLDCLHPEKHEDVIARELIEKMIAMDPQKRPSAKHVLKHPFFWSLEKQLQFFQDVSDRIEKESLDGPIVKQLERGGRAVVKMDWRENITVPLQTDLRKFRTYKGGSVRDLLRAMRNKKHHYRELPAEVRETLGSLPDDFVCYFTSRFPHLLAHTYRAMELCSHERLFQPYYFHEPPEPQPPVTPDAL

Q: With `Cc1csc(NC(=O)CSc2nc3c(c(C(F)(F)F)c2C#N)CCC3)n1` [Compound 9389] as the compound, how does the “total level of IRE1α” value (IRE1α; 2.5 μM, 16 hours) read?
A: no significant changes

Q: What about the “levels of phospho-IRE1α after Tm” value (IRE1α; 16 hours preincubation 2.5 μM, then Tm 5 μg/ml) of the same compound?
A: rapid increase in levels of phospho-IRE1α

Q: What about the “cleavage of XBP-1 RNA substrate by His6-IRE1α-cyto” value (IRE1α-cyto) of the same compound?
A: strongly inhibited cleavage

— US20090291857A1, “METHODS TO IDENTIFY INHIBITORS OF THE UNFOLDED PROTEIN RESPONSE” (THE BOARD OF TRUSTEES OF THE LELAND STANFORD JUNIOR …, priority 2006, published 2009)
